Converted amounts (≈) assume the structure as drawn.
What was measured:
[1] = test system: LPS-induced accumulation of neutrophils in rat lungs; experiment: LPS-induced pulmonary inflammation in rats (neutrophil count in bronchial fluid wash); assay type: in vivo; details: single oral dose 100, 40, 10 μmol/kg one hour before LPS 0.4 mg/kg endotracheal, 20 h, erythromycin: single oral dose 130 μmol/kg
Experimental: B) LPS-Induced Pulmonary Inflammation in Rats • Administration
The rats received endotracheally, via the peroral route, a single dose of 0.4 mg/kg of LPS (E. coli, serotype 026:6). The tracheal instillation was performed under anaesthesia with halothane and, 20 hours after the endotracheal administration of LPS/saline solution, the animals were sacrificed by means of an overdose of urethane. • Washing
The lungs were washed with 4 aliquots of 5 ml each of saline solution with 10 IU ml^−1 heparin. The cell suspension was concentrated by low-speed centrifugation and the cell pellet was suspended. • Counting of the Cells and Differentiation.
The total cell count was performed in a haemocytometer.
The differential counting was performed on cytospin preparations stained with May-Grunwald-Giemsa (Tamaoki J., Tagaya E., Yamawaki I., Sakai, Nagai A., Konno K, 1995. Effect of erythromycin on endotoxin-induced microvascular leakage in the rat trachea and lungs. Am. J. Respir. Crit. Care Med., 151, 1582-8). The rats received the test compounds orally in doses of 100, 40 and 10 μmol/kg as a single administration dose orally one hour before exposure to LPS.
ED50 value is the dose that induced a 50% reduction in the neutrophil count in the bronchial fluid wash.
The data relating to erythromycin refers to an oral treatment with a single dose of 130 μmol/kg.

[2] = test system: PMA-induced oedema in mouse ear; experiment: Acute contact dermatitis: TPA (PMA)-induced ear oedema in mice; assay type: in vivo; details: CD1 mice, 500 μg/ear topical in TPDS 30 min before TPA 0.01%, 6 h
Experimental: Groups of 5-6 CD1 mice (18-24 g) were used. • Administration of the compounds
All the macrolide compounds were dissolved in Trans-phase Delivery System (TPDS), a vehicle formed by 10% benzyl alcohol, 40% acetone and 50% isopropanol.
15 microlitres of the compounds (500 μg), dissolved in TPDS, were applied topically to the inner surface of an ear; 30 minutes later, 12 microlitres of a solution of tetradecanoylphorbol acetate (TPA) at a concentration of 0.01% dissolved in acetone were applied to the same area.
Six hours later, the animals were sacrificed by inhalation of CO2. • Evaluation of the results
Two methods were used to evaluate the auricular oedema: • a) Weight of a given portion of auricular pinna. • b) Measurement of the auricular thickness using precision spring callipers.
The degree of oedema was calculated by subtracting the weight or the thickness of the untreated ear from that of the contralateral treated ear. To determine the degree of remission of the oedema, the difference (weight or thickness) of the groups treated with TPA+macrolides was then compared with the groups treated with TPA alone.
The activity of the macrolide compounds was measured by using the modified method of Zunic et al. (1998): MDL (Lysyl) GDP, a non-toxic muramyl dipeptide derivative inhibits cytokine production by activated macrophages and protects mice from phorbol ester- and oxazolone-induced inflammation (J. Invest. Dermatol., 111(1), 77-82).
The data relating to erythromycin and azythromycin concern the treatment with a single dose of 500 μg/ear.

[3] = test system: Staphylococcus aureus ATCC 29213; experiment: Antibiotic activity, MIC in liquid medium; assay type: cell-based; details: ATCC29213, Staph. aureus ATCC 29213
Experimental: (§1) The MIC values were determined in liquid earth according to the method described in “Manual of Clinical Microbiology, 7th edition (1999), American Society for Microbiology”.

[4] = test system: Streptococcus pneumoniae ATCC 49619; experiment: Antibiotic activity, MIC in liquid medium; assay type: cell-based; details: ATCC49619, Strep. pneum ATTC 49619
Experimental: as §1

[5] = test system: Staphylococcus aureus ATCC 6538; experiment: Antibiotic activity at 128 μg/ml; assay type: cell-based; details: Staph. aureus ATCC 6538
Experimental: as §1

[6] = test system: Streptococcus pyogenes ATCC 19615; experiment: Antibiotic activity at 128 μg/ml; assay type: cell-based; details: Strep. pyogenes ATTC 19615
Experimental: as §1

[7] = test system: Enterococcus faecalis ATCC 29212; experiment: Antibiotic activity, MIC or activity at 128 μg/ml; assay type: cell-based; details: Enter. faecalis ATCC 29212; for MIC: Enterococcus faecalis, ATCC29212
Experimental: as §1

[8] = Water solubility noted at work-up; assay type: physicochemical; details: remark in the work-up
Experimental: Compound 19 was prepared from intermediate 28 (600 mg, 0.64 mmol) according to the procedures described for compound 1. Given that the product is water-soluble, the crude solid was dissolved in water (50′ ml) and washed with CH2Cl2 (3×20 ml). The solvent was evaporated from the aqueous phase under vacuum and dried to give compound 19 (480 mg, 95% yield) as a crystalline solid. • [M+1]^+ 775

[9] = method a: weight of a given portion of auricular pinna

SMILES	ED50 ([1]; Rattus norvegicus, Neutrophil, read-out: ED50 (dose inducing 50% reduction in neutrophil count in bronchial fluid wash)) [µmol/kg]	inhibition in vivo at 500 µg/ear [2, 9] [%]	MIC [3] [µg/mL]	MIC [4] [µg/mL]	Antibiotic activity at 128 μg/ml ([5]; 128 μg/ml)	Antibiotic activity at 128 μg/ml ([6]; 128 μg/ml)	Antibiotic activity at 128 μg/ml ([7]; 128 μg/ml)	MIC [7] [µg/mL]	inhibition in vivo at 500 µg/ear ([2]; method b: auricular thickness by precision spring callipers) [%]	Solubility in water [8]	ED50 (dose inducing 50% reduction in neutrophil count in bronchial fluid wash) [1]	MIC ([5]; Staphylococcus aureus, ATCC6538) [µg/mL]	MIC ([6]; Streptococcus pyogenes, ATCC19615) [µg/mL]
CC[C@H]1OC(=O)[C@H](C)[C@@H](O)[C@H](C)[C@@H](O[C@@H]2O[C@H](C)C[C@H](N(C)C(C)=O)[C@H]2O)C(C)(O)C[C@@H](C)[C@H](O)[C@H](C)[C@@H](O)[C@]1(C)O (some centres unmarked) [Compound 1]	7	65.6	> 128	> 128	not active	not active	not active	> 128	–	–	–	–	–
CC[C@H]1OC(=O)[C@H](C)[C@@H](O)[C@H](C)[C@H](O[C@@H]2O[C@H](C)CC(N(C)C)[C@@H]2O)[C@](C)(O)C[C@@H](C)/C(=N\OCCNCCNCc2nccs2)[C@H](C)[C@H](O)[C@]1(C)O (some centres unmarked) [Compound 19]	–	–	> 128	16 (≈ 20.7 µM)	–	–	–	> 128	28.2	water-soluble	–	–	–
CC[C@H]1OC(=O)[C@H](C)[C@@H](O[C@H]2C[C@@](C)(OC)[C@@H](O)[C@H](C)O2)[C@H](C)[C@@H](O[C@@H]2O[C@H](C)C[C@H](N(C)C)[C@H]2O)[C@](C)(O)C[C@@H](C)C(=O)[C@H](C)[C@@H](O)[C@]1(C)O [Erythromycin, reference compound]	–	42	0.25 (≈ 0.341 µM)	0.12 (≈ 0.164 µM)	–	–	–	1 (≈ 1.36 µM)	–	–	Not active	0.25 (≈ 0.341 µM)	0.12 (≈ 0.164 µM)

From patent publication US7488811B2, “Macrolide compounds endowed with antiinflammatory activity” (Zambon Group S.p.A., priority 2002, dated 2009)
